≈ marks a conversion by molar mass, not a printed value.
Target: T1, collagenase
T1 construct: gene colG; docking used another collagenase (printed PDB 465C / 456C)
Assay: FALGPA hydrolysis, ninhydrin, absorbance at […] nm
Format: biochemical
Settings: FALGPA substrate, 50 mM tricine, 37 °C, 20 min preincubation; metal chelator

O=C(O)CN(CCN(CC(=O)O)CC(=O)O)CC(=O)O [EDTA]
IC50 ± SD (% inhibition ± SD) / Anti-collagenase: 315.12 ± 2.21 µg/mL (≈ 1080 µM)
